Measured values taken from ChEMBL document CHEMBL3352108, “Structure-activity relationships of the thujaplicins for inhibition of human tyrosinase” (Bioorg Med Chem, 2014).
pIC50: −log10 of the molar value. Active and inactive are the calls of the source. No cut-off for these calls is given here.

Columns and labels:
[1] = target: T1, Tyrosinase (Homo sapiens) (UniProt P14679); assay: Ratio of kojic acid IC50 to compound IC50 for human tyrosinase
T1 sequence (whole entry): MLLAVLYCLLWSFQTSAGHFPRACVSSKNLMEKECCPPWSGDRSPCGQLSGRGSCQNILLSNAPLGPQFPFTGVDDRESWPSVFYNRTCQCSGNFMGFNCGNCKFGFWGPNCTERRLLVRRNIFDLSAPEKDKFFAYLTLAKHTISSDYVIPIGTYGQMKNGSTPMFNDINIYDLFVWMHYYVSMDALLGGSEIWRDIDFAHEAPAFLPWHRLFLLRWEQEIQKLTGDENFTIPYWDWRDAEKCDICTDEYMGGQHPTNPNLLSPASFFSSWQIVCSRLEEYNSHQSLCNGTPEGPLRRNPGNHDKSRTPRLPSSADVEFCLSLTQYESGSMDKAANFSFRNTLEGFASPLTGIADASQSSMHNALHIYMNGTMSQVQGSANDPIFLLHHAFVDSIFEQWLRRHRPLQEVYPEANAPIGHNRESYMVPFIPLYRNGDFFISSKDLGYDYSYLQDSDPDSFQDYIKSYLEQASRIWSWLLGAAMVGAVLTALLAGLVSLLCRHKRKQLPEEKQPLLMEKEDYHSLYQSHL

Tyrosinase [2] = target: T2, Tyrosinase (Homo sapiens, UniProt P14679); assay: Inhibition of tyrosinase in human HMV-2 melanoma cells after 5 mins by spectrophotometry; format: cell-based
T2 sequence (P14679 whole entry): T1 sequence (whole entry)

Tyrosinase [3] = target: T3, Tyrosinase (Agaricus bisporus, UniProt O42713)
T3 sequence (O42713 whole entry): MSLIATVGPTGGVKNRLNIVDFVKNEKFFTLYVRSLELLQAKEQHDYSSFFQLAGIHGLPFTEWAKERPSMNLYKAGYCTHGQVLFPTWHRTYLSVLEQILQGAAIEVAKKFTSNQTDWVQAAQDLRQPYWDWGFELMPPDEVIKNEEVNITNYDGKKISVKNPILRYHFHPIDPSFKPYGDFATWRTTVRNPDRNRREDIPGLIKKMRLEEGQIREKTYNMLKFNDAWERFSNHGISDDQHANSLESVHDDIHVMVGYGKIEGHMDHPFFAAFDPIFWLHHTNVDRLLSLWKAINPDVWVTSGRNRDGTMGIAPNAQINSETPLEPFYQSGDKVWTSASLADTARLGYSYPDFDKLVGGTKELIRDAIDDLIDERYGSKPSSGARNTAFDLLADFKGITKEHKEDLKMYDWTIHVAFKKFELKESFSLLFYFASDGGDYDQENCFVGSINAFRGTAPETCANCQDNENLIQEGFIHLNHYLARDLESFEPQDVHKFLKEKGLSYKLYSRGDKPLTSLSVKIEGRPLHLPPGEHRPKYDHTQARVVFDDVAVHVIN
Description: Non-competitive inhibition of mushroom tyrosinase

Tyrosinase [4] = target: T3, Tyrosinase; remark: listed apart in the source
Description: Inhibition of mushroom tyrosinase

Tyrosinase [5] = target: T2, Tyrosinase
Description: (§1) Competitive inhibition of tyrosinase in human G-361 cells incubated for 10 mins measured for 2 hrs by MBTH-based spectrophotometry

[6] = target: T1, Tyrosinase (Homo sapiens); settings: G-361
Description: as §1

[7] = target: T1, Tyrosinase (Homo sapiens); assay: Inhibition of tyrosinase in human G-361 cells at >200 uM incubated for 10 mins measured for 2 hrs by MBTH-based spectrophotometry; format: cell-based

O=C(NCCc1c[nH]c2cc(O)ccc12)c1cc(O)cc(O)c1
Ratio IC50 [1]: 34.1
pIC50 (Tyrosinase [2]): 5.04

CCCCCCCC/C=C\CCCCCCCC(=O)OCC(COC(=O)CCCCCCC/C=C\CCCCCCCC)OC(=O)CCCCCCC/C=C\CCCCCCCC [TRIOLEIN]
pIC50 (Tyrosinase [3]): 4.52

CCCCC/C=C\C/C=C\CCCCCCCC(=O)OCC(COC(=O)CCCCCCC/C=C\C/C=C\CCCCC)OC(=O)CCCCCCC/C=C\C/C=C\CCCCC
pIC50 (Tyrosinase [3]): 5.08

O=Cc1ccc(O)c(O)c1 [PROTOCATECHUALDEHYDE]
pIC50 (Tyrosinase [4]): 5.54

O=c1cc(-c2ccc(O)c(O)c2)oc2c(O)c(O)ccc12
pIC50 (Tyrosinase [4]): 7.15

CC(C)c1cccc(=O)c(O)c1 [HINOKITIOL]
pIC50 (Tyrosinase [5]): 5.05
Ratio IC50 [1]: 63.6
inhibition [6]: Dose-dependent effect

CC(C)c1ccccc(=O)c1O [ALPHA-THUJAPLICIN]
pIC50 (Tyrosinase [5]): < 3.00
Ratio IC50 [1]: < 0.57
inhibition [7]: Active

CC(C)c1ccc(O)c(=O)cc1 [GAMMA-THUJAPLICIN]
pIC50 (Tyrosinase [5]): 5.94
Ratio IC50 [1]: 497
inhibition [6]: Dose-dependent effect
